Measurements published in BindingDB's records for doi:10.1016/0960-894X(95)00024-N (1995).

Assay: Concentration required for the in vitro inhibition of Acyl coenzyme A:cholesterol acyltransferase (ACAT) in intestinal microsomes isolated from cholesterol-fed rabbits

Structure (SMILES) | IC50
CCCCCCCCCCCCCCCn1nnc(C(NC(=O)c2c(C)cccc2C)c2ccccc2)n1 (configuration not stated) [2,6-Dimethyl-N-[(2-pentadecyl-2H-tetrazol-5-yl)-phenyl-methyl]-benzamide] | 0.44 µM
CCCCCCCn1nnc(C(NC(=O)c2c(C)cccc2C)c2ccccc2)n1 (configuration not stated) [N-[(2-Heptyl-2H-tetrazol-5-yl)-phenyl-methyl]-2,6-dimethyl-benzamide] | 3.7 µM
